Source: paper PMC8001506 (Marine Drugs, 2021)
Entries after “also recorded” stand apart in the source; their conditions may differ. Where a SMILES comes first, the peptide text is derived from it. Bridges are numbered along the chain shown (N, C = ends).

How the values were obtained:
rat α3β2 nAChR = rat α3β2 nAChR (Rattus norvegicus, UniProt P04757+P12390); experiment: cell-based
rat α2β2 nAChR = rat α2β2 nAChR (Rattus norvegicus, UniProt P12389+P12390); experiment: cell-based; type: cell-based
Chain of rat α2β2 nAChR (P12389 28-511 limits assumed): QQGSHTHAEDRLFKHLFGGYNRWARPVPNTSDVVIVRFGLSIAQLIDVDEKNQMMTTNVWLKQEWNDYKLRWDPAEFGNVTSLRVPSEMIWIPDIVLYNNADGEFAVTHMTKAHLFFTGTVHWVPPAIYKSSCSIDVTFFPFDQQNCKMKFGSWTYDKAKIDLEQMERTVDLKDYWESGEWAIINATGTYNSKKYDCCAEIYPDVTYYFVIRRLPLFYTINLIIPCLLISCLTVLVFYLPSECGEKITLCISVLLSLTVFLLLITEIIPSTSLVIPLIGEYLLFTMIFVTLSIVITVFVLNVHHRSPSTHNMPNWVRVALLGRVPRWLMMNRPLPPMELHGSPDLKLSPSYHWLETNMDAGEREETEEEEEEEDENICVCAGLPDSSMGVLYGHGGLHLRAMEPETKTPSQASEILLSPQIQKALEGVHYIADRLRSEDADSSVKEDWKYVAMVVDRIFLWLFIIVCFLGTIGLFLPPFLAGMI
Chain of rat α2β2 nAChR (P12390 25-500 limits assumed): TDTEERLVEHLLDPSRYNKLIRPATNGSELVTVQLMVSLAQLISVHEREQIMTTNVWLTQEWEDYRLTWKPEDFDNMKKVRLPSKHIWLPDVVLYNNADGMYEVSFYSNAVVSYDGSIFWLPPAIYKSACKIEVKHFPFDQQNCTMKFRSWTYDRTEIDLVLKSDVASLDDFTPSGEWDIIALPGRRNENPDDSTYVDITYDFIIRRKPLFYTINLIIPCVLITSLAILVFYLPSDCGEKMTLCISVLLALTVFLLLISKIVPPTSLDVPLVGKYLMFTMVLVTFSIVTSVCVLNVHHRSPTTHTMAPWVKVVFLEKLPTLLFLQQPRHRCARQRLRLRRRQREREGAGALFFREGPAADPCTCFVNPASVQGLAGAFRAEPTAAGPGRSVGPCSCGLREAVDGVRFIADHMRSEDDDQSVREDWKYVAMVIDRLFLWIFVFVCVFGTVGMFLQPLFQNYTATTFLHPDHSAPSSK

human α9α10 nAChR = human α9α10 nAChR (Homo sapiens, UniProt Q9GZZ6+Q9UGM1); experiment: cell-based; type: cell-based
Chain of human α9α10 nAChR (Q9UGM1 26-479 limits assumed): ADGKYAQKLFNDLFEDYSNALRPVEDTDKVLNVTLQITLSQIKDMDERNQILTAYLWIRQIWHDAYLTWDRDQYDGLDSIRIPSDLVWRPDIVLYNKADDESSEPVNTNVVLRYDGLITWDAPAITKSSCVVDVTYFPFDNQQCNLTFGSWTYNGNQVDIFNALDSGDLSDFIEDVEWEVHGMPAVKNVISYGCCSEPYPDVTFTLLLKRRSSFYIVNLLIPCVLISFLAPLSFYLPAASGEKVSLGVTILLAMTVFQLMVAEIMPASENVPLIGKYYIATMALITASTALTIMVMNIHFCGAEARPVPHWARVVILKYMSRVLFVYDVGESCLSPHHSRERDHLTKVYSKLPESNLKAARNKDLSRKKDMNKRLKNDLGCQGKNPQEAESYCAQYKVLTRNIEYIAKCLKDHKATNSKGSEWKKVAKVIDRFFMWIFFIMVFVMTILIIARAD
Chain of human α9α10 nAChR (Q9GZZ6 25-450 limits assumed): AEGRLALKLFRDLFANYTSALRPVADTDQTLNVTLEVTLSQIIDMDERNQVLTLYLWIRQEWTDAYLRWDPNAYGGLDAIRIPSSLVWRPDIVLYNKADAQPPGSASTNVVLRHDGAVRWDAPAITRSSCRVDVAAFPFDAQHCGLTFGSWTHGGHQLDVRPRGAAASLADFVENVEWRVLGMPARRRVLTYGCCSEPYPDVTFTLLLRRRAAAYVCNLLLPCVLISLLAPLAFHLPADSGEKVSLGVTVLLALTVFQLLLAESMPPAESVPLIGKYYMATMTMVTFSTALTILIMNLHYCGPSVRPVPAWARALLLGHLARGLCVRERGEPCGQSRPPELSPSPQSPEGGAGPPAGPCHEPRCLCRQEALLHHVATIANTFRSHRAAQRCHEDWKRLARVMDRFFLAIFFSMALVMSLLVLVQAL

rat α4β4 nAChR = rat α4β4 nAChR (Rattus norvegicus, UniProt P09483+P12392); experiment: cell-based; type: cell-based
Chain of rat α4β4 nAChR (P09483 31-630 limits assumed): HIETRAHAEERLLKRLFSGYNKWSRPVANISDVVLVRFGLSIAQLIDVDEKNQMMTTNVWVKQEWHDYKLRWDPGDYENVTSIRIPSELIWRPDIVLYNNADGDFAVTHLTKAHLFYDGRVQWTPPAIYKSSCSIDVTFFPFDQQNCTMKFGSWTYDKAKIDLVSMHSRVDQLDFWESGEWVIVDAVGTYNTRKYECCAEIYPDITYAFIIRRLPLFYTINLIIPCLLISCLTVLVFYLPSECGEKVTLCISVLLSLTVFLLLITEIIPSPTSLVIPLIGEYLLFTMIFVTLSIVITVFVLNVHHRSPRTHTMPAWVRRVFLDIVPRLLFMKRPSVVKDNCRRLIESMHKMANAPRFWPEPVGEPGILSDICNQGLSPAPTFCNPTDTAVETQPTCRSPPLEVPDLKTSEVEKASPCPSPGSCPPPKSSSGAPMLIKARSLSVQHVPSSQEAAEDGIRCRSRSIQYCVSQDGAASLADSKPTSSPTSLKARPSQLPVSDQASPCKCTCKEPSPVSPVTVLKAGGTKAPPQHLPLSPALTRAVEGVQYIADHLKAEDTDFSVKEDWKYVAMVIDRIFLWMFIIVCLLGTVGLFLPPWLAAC
Chain of rat α4β4 nAChR (P12392 21-495 limits assumed): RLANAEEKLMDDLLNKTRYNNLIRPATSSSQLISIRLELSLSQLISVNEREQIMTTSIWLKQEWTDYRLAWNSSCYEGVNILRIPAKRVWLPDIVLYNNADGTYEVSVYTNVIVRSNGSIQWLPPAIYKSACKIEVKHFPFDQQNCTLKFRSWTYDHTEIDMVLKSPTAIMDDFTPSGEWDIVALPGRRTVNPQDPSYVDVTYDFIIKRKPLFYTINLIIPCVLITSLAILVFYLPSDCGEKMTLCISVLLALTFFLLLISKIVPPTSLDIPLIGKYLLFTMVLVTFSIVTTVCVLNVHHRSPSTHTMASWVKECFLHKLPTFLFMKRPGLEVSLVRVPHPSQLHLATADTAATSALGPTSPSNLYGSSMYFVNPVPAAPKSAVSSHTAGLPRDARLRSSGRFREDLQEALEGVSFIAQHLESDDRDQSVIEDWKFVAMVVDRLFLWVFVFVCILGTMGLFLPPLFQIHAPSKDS

rat α2β4 nAChR = rat α2β4 nAChR (Rattus norvegicus, UniProt P12389+P12392); experiment: cell-based; type: cell-based
Chain of rat α2β4 nAChR (P12389 28-511 limits assumed): as the sequence (P12389 28-511 limits assumed) above
Chain of rat α2β4 nAChR (P12392 21-495 limits assumed): as the sequence (P12392 21-495 limits assumed) above

rat α7 nAChR = rat α7 nAChR (Rattus norvegicus, UniProt Q05941); experiment: cell-based; type: cell-based
Chain of rat α7 nAChR (Q05941 23-502 limits assumed): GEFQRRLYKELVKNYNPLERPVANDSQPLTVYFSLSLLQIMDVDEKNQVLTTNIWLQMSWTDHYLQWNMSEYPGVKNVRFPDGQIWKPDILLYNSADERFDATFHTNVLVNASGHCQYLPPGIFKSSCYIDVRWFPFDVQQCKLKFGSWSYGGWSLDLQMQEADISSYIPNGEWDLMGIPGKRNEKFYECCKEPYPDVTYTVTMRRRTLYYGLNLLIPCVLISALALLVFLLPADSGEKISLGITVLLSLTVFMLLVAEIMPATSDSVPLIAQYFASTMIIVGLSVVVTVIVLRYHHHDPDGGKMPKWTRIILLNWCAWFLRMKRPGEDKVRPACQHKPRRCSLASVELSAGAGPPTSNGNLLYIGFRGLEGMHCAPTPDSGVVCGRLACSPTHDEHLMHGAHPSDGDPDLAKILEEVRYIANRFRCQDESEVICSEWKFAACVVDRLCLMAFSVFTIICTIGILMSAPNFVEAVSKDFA

rat α4β2 nAChR = rat α4β2 nAChR (Rattus norvegicus, UniProt P09483+P12390); experiment: cell-based; type: cell-based
Chain of rat α4β2 nAChR (P09483 31-630 limits assumed): as the sequence (P09483 31-630 limits assumed) above
Chain of rat α4β2 nAChR (P12390 25-500 limits assumed): as the sequence (P12390 25-500 limits assumed) above

rat α6/α3β2β3 nAChR = rat α6/α3β2β3 nAChR (Rattus norvegicus, UniProt P04757+P12390+P12391+P43143); experiment: cell-based
[1] = test system: common mammalian nAChR combinations; type: cell-based
rat α3β4 nAChR = rat α3β4 nAChR (Rattus norvegicus, UniProt P04757+P12392); experiment: cell-based; type: cell-based
Chain of rat α3β4 nAChR (P04757 26-499 limits assumed): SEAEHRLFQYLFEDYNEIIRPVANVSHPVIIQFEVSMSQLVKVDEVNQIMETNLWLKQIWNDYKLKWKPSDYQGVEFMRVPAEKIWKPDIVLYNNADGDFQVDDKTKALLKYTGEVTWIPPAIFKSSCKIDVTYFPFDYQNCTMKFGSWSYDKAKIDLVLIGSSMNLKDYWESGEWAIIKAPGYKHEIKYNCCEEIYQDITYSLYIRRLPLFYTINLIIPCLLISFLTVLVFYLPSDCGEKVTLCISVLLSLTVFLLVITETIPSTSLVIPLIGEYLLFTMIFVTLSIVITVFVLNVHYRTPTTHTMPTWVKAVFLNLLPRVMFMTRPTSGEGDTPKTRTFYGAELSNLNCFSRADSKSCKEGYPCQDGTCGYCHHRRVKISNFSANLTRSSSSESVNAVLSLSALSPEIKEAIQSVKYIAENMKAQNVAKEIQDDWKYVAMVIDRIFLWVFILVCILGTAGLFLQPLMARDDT
Chain of rat α3β4 nAChR (P12392 21-495 limits assumed): as the sequence (P12392 21-495 limits assumed) above

Chain of rat α3β2 nAChR (P04757 26-499 limits assumed): as the sequence (P04757 26-499 limits assumed) above
Chain of rat α3β2 nAChR (P12390 25-500 limits assumed): as the sequence (P12390 25-500 limits assumed) above

## CC(C)C[C@@H]1NC(=O)[C@H](CC(=O)O)NC(=O)[C@H](CO)NC(=O)[C@H](Cc2c[nH]cn2)NC(=O)[C@H](CCC(N)=O)NC(=O)[C@H](C(C)C)NC(=O)[C@H](CCC(N)=O)NC(=O)[C@@H]2CSSC[C@H](N)C(=O)N[C@@H](CSSC[C@@H](C(=O)O)NC1=O)C(=O)N[C@@H](CO)C(=O)N[C@@H](CC(N)=O)C(=O)N1CCC[C@H]1C(=O)N[C@@H](C)C(=O)N2 [Δ-CIC] (H-CCSNPACQVQHSDLC-OH; disulfide 1-7, 2-15)
Rat α3β2 nAChR
  IC50: 4.56 µM
Rat α2β2 nAChR
  IC50: > 10 µM
  inhibition (in words): no inhibition was detected; also recorded: No effects were observed
Human α9α10 nAChR
  IC50: > 10 µM
  inhibition (in words): no inhibition was detected; also recorded: No effects were observed
Rat α4β4 nAChR
  IC50: > 10 µM
  inhibition (in words): no inhibition was detected; also recorded: No effects were observed
Rat α2β4 nAChR
  IC50: > 10 µM
  inhibition (in words): no inhibition was detected; also recorded: No effects were observed
Rat α7 nAChR
  IC50: > 10 µM
  inhibition (in words): no inhibition was detected; also recorded: No effects were observed
Rat α4β2 nAChR
  IC50: > 10 µM
  inhibition (in words): no inhibition was detected; also recorded: No effects were observed
Rat α6/α3β2β3 nAChR
  IC50: 1.08 µM
[1]
  dissociation behavior, CIC versus Δ-CIC: no difference in dissociation behavior
Rat α3β4 nAChR
  IC50: > 10 µM
  inhibition (in words): no inhibition was detected; also recorded: No effects were observed
